Results: US8580794B2 (AbbVie Inc., priority 2009, dated 2013)

target: GST-Bc1-2 (Homo sapiens, UniProt P10415); assay: Time Resolved-Fluorescence Resonance Energy Transfer (TR-FRET) Bcl-2 binding assay with F-Bak peptide probe; conditions: GST-Bcl-2 1 nM, F-Bak probe 100 nM, Tb-anti-GST 1 nM; '<' = below limit of detection; read-out: TR-FRET Bcl-2 Binding Ki
Sequence (P10415 whole entry): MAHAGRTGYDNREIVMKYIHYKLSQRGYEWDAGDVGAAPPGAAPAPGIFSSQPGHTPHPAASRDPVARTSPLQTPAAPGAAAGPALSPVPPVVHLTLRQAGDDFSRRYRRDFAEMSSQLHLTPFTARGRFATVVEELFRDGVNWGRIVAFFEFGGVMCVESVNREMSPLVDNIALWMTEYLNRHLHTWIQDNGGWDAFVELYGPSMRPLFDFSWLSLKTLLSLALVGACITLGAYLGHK

`CC1(C)CCC(CN2CCN(c3ccc(C(=O)NS(=O)(=O)c4cnc(OCC5CCOCC5)c(F)c4)c(Oc4cnc5[nH]ccc5c4)c3)CC2)=C(c2ccc(Cl)cc2)C1` [Example 293, 4-(4-{[2-(4-chlorophenyl)-4,4-dimethylcyclohex-1-en-1-yl]methyl}piperazin-1-yl)-N-{[5-fluoro-6-(tetrahydro-2H-pyran-4-ylmethoxy)pyridin-3-yl]sulfonyl}-2-(1H-pyrrolo[2,3-b]pyridin-5-yloxy)benzamide] and `CC1(C)CCC(CN2CCN(c3ccc(C(=O)NS(=O)(=O)c4cnc(OCCC5CCCO5)c(Cl)c4)c(Oc4cnc5[nH]ccc5c4)c3)CC2)=C(c2ccc(Cl)cc2)C1` (centres unmarked) [Example 289, 4-(4-{[2-(4-chlorophenyl)-4,4-dimethylcyclohex-1-en-1-yl]methyl}piperazin-1-yl)-N-({5-chloro-6-[2-(tetrahydrofuran-2-yl)ethoxy]pyridin-3-yl}sulfonyl)-2-(1H-pyrrolo[2,3-b]pyridin-5-yloxy)benzamide] are within 1.5-fold of each other in Ki: 0.093 nM for the first, 0.09 nM for the second.

`O=C(NS(=O)(=O)c1ccc(NCC2CCOCC2)c([N+](=O)[O-])c1)c1ccc(N2CCN(CC3=C(c4ccc(Cl)cc4)CCC(F)(F)C3)CC2)cc1Oc1cnc2[nH]ccc2c1` [Example 321, 4-(4-{[2-(4-chlorophenyl)-5,5-difluorocyclohex-1-en-1-yl]methyl}piperazin-1-yl)-N-({3-nitro-4-[(tetrahydro-2H-pyran-4-ylmethyl)amino]phenyl}sulfonyl)-2-(1H-pyrrolo[2,3-b]pyridin-5-yloxy)benzamide] and `O=C(NS(=O)(=O)c1ccc(NCC2CN(C3CC3)CCO2)c([N+](=O)[O-])c1)c1ccc(N2CCN(CC3=C(c4ccc(Cl)cc4)CC4(CC3)CC4)CC2)cc1Oc1cnc2[nH]ccc2c1` (centres unmarked) [Example 330, 4-(4-{[5-(4-chlorophenyl)spiro[2.5]oct-5-en-6-yl]methyl}piperazin-1-yl)-N-[(4-{[(4-cyclopropylmorpholin-2-yl)methyl]amino}-3-nitrophenyl)sulfonyl]-2-(1H-pyrrolo[2,3-b]pyridin-5-yloxy)benzamide] cannot be ordered by Ki: less than 0.01 nM for the first, less than 0.01 nM for the second.

Going from `CC1(C)CCC(CN2CCN(c3ccc(C(=O)NS(=O)(=O)c4ccc5nc[nH]c(=O)c5c4)c(Oc4cnc5[nH]ccc5c4)c3)CC2)=C(c2ccc(Cl)cc2)C1` [Example 70, 4-(4-{[2-(4-chlorophenyl)-4,4-dimethylcyclohex-1-en-1-yl]methyl}piperazin-1-yl)-N-[(4-oxo-3,4-dihydroquinazolin-6-yl)sulfonyl]-2-(1H-pyrrolo[2,3-b]pyridin-5-yloxy)benzamide] to `CC1(C)CCC(CN2CCN(c3ccc(C(=O)NS(=O)(=O)c4ccc(OCC5(F)CCNCC5)c([N+](=O)[O-])c4)c(Oc4cnc5[nH]ccc5c4)c3)CC2)=C(c2ccc(Cl)cc2)C1` [Example 127, 4-(4-{[2-(4-chlorophenyl)-4,4-dimethylcyclohex-1-en-1-yl]methyl}piperazin-1-yl)-N-({4-[(4-fluoropiperidin-4-yl)methoxy]-3-nitrophenyl}sulfonyl)-2-(1H-pyrrolo[2,3-b]pyridin-5-yloxy)benzamide], the Ki falls from 3.96 nM to less than 0.01 nM. The second binds more tightly here.

First: CC1(C)CCC(CN2CCN(c3ccc(C(=O)NS(=O)(=O)c4ccc(NCC5CCCN(CC#N)C5)c([N+](=O)[O-])c4)c(Oc4cnc5[nH]ccc5c4)c3)CC2)=C(c2ccc(Cl)cc2)C1 (centres unmarked) [Example 229, 4-(4-{[2-(4-chlorophenyl)-4,4-dimethylcyclohex-1-en-1-yl]methyl}piperazin-1-yl)-N-{[4-({[1-(cyanomethyl)piperidin-3-yl]methyl}amino)-3-nitrophenyl]sulfonyl}-2-(1H-pyrrolo[2,3-b]pyridin-5-yloxy)benzamide]
Second: CC1(C)CCC(CN2CCN(c3ccc(C(=O)NS(=O)(=O)c4ccc(NCC56CC7CC(C5)C(O)C(C7)C6)c([N+](=O)[O-])c4)c(Oc4cnc5[nH]ccc5c4)c3)CC2)=C(c2ccc(Cl)cc2)C1 (centres unmarked) [Example 199, 4-(4-{[2-(4-chlorophenyl)-4,4-dimethylcyclohex-1-en-1-yl]methyl}piperazin-1-yl)-N-{[4-({[(E)-4-hydroxy-1-adamantyl]methyl}amino)-3-nitrophenyl]sulfonyl}-2-(1H-pyrrolo[2,3-b]pyridin-5-yloxy)benzamide]
The Ki of the first is higher: 2.11 nM for the first, less than 0.01 nM for the second.

Compared with `CC1(C)CCC(CN2CCN(c3ccc(C(=O)NS(=O)(=O)c4cc(F)c(F)c(OCC5(F)CCOCC5)c4)c(Oc4cnc5[nH]ccc5c4)c3)CC2)=C(c2ccc(Cl)cc2)C1` [Example 313, 4-(4-{[2-(4-chlorophenyl)-4,4-dimethylcyclohex-1-en-1-yl]methyl}piperazin-1-yl)-N-({3,4-difluoro-5-[(4-fluorotetrahydro-2H-pyran-4-yl)methoxy]phenyl}sulfonyl)-2-(1H-pyrrolo[2,3-b]pyridin-5-yloxy)benzamide], `CC1(C)CCC(CN2CCN(c3ccc(C(=O)NS(=O)(=O)c4ccc(OCC5(F)CCOCC5)nc4)c(Oc4cnc5[nH]ccc5c4)c3)CC2)=C(c2ccc(Cl)cc2)C1` [Example 251, 4-(4-{[2-(4-chlorophenyl)-4,4-dimethylcyclohex-1-en-1-yl]methyl}piperazin-1-yl)-N-({6-[(4-fluorotetrahydro-2H-pyran-4-yl)methoxy]pyridin-3-yl}sulfonyl)-2-(1H-pyrrolo[2,3-b]pyridin-5-yloxy)benzamide] is 1.9-fold lower in Ki: 1.1 nM for the first, 0.571 nM for the second.

Compared with `CC1(C)CCC(CN2CCN(c3ccc(C(=O)NS(=O)(=O)c4cnc(OC[C@H]5CN(CC#N)CCO5)c(Cl)c4)c(Oc4cnc5[nH]ccc5c4)c3)CC2)=C(c2ccc(Cl)cc2)C1` [Example 246, N-[(5-chloro-6-{[(2R)-4-(cyanomethyl)morpholin-2-yl]methoxy}pyridin-3-yl)sulfonyl]-4-(4-{[2-(4-chlorophenyl)-4,4-dimethylcyclohex-1-en-1-yl]methyl}piperazin-1-yl)-2-(1H-pyrrolo[2,3-b]pyridin-5-yloxy)benzamide], `CN(C)CC(=O)N1CCO[C@@H](COc2ncc(S(=O)(=O)NC(=O)c3ccc(N4CCN(CC5=C(c6ccc(Cl)cc6)CC(C)(C)CC5)CC4)cc3Oc3cnc4[nH]ccc4c3)cc2Cl)C1` [Example 247, N-[(5-chloro-6-{[(2R)-4-(N,N-dimethylglycyl)morpholin-2-yl]methoxy}pyridin-3-yl)sulfonyl]-4-(4-{[2-(4-chlorophenyl)-4,4-dimethylcyclohex-1-en-1-yl]methyl}piperazin-1-yl)-2-(1H-pyrrolo[2,3-b]pyridin-5-yloxy)benzamide] is 7.6-fold lower in Ki: 0.144 nM for the first, 0.019 nM for the second.

First: O=C(NS(=O)(=O)c1cnc(OCC2(F)CCOCC2)c(Cl)c1)c1ccc(N2CCC(F)(Cc3ccccc3-c3ccc(Cl)cc3)CC2)cc1Oc1cnc2[nH]ccc2c1 [Example 272, 4-{4-[(4′-chlorobiphenyl-2-yl)methyl]-4-fluoropiperidin-1-yl}-N-({5-chloro-6-[(4-fluorotetrahydro-2H-pyran-4-yl)methoxy]pyridin-3-yl}sulfonyl)-2-(1H-pyrrolo[2,3-b]pyridin-5-yloxy)benzamide]
Second: CC1(C)CCC(CN2CCN(c3ccc(C(=O)NS(=O)(=O)c4cnc(NCC5(F)CCOCC5)c(Cl)c4)c(Oc4cnc5[nH]ccc5c4)c3)CC2)=C(c2ccc(Cl)cc2)C1 [Example 242, N-[(5-chloro-6-{[(4-fluorotetrahydro-2H-pyran-4-yl)methyl]amino}pyridin-3-yl)sulfonyl]-4-(4-{[2-(4-chlorophenyl)-4,4-dimethylcyclohex-1-en-1-yl]methyl}piperazin-1-yl)-2-(1H-pyrrolo[2,3-b]pyridin-5-yloxy)benzamide]
The Ki of the first is 1.8-fold lower: 0.031 nM for the first, 0.057 nM for the second. The first binds more tightly here.

Compared with `CC1(C)CCC(CN2CCN(c3ccc(C(=O)NS(=O)(=O)c4ccc(OCC5COCCN5C(=O)OC(C)(C)C)c([N+](=O)[O-])c4)c(Oc4cnc5[nH]ccc5c4)c3)CC2)=C(c2ccc(Cl)cc2)C1` (centres unmarked) [Example 77, tert-butyl 3-{[4-({[4-(4-{[2-(4-chlorophenyl)-4,4-dimethylcyclohex-1-en-1-yl]methyl}piperazin-1-yl)-2-(1H-pyrrolo[2,3-b]pyridin-5-yloxy)benzoyl]amino}sulfonyl)-2-nitrophenoxy]methyl}morpholine-4-carboxylate], `CC1(C)CCC(CN2CCN(c3ccc(C(=O)NS(=O)(=O)c4ccc(OCC5(F)CCN(C6CC6)CC5)c([N+](=O)[O-])c4)c(Oc4cnc5[nH]ccc5c4)c3)CC2)=C(c2ccc(Cl)cc2)C1` [Example 173, 4-(4-{[2-(4-chlorophenyl)-4,4-dimethylcyclohex-1-en-1-yl]methyl}piperazin-1-yl)-N-({4-[(1-cyclopropyl-4-fluoropiperidin-4-yl)methoxy]-3-nitrophenyl}sulfonyl)-2-(1H-pyrrolo[2,3-b]pyridin-5-yloxy)benzamide] is lower in Ki: 0.213 nM for the first, less than 0.01 nM for the second. The second binds more tightly here.

First: O=C(NS(=O)(=O)c1ccc(NCCCN2CCOCC2)c([N+](=O)[O-])c1)c1ccc(N2CCN(Cc3ccccc3-c3ccc(Cl)cc3)CC2)cc1Oc1cnc2[nH]ccc2c1 [Example 2, 4-{4-[(4′-chloro-1,1′-biphenyl-2-yl)methyl]piperazin-1-yl}-N-({4-[(3-morpholin-4-ylpropyl)amino]-3-nitrophenyl}sulfonyl)-2-(1H-pyrrolo[2,3-b]pyridin-5-yloxy)benzamide]
Second: CC1(C)CCC(CN2CCN(c3ccc(C(=O)NS(=O)(=O)c4cnc(O[C@@H]5CCN(C(CF)CF)C5)c(Cl)c4)c(Oc4cnc5[nH]ccc5c4)c3)CC2)=C(c2ccc(Cl)cc2)C1 [Example 274, N-[(5-chloro-6-{[(3R)-1-(1,3-difluoropropan-2-yl)pyrrolidin-3-yl]oxy}pyridin-3-yl)sulfonyl]-4-(4-{[2-(4-chlorophenyl)-4,4-dimethylcyclohex-1-en-1-yl]methyl}piperazin-1-yl)-2-(1H-pyrrolo[2,3-b]pyridin-5-yloxy)benzamide]
The Ki of the first is lower: less than 0.01 nM for the first, 0.04 nM for the second. The first binds more tightly here.

`CC1(C)CCC(CN2CCN(c3ccc(C(=O)NS(=O)(=O)c4cnc(OCC5CCc6nccn6C5)c(Cl)c4)c(Oc4cnc5[nH]ccc5c4)c3)CC2)=C(c2ccc(Cl)cc2)C1` (centres unmarked) [Example 342, 4-(4-{[2-(4-chlorophenyl)-4,4-dimethylcyclohex-1-en-1-yl]methyl}piperazin-1-yl)-N-{[5-chloro-6-(5,6,7,8-tetrahydroimidazo[1,2-a]pyridin-6-ylmethoxy)pyridin-3-yl]sulfonyl}-2-(1H-pyrrolo[2,3-b]pyridin-5-yloxy)benzamide] showed a Ki of less than 0.01 nM.

same assay, conditions: Table 5, direct comparison Z=N vs Z=C analogs; read-out: Bcl-2 FRET ki

Work on `O=C(NS(=O)(=O)c1ccc(NCCCN2CCOCC2)c([N+](=O)[O-])c1)c1ccc(N2CCN(Cc3ccccc3-c3ccc(Cl)cc3)CC2)cc1Oc1cnc2[nH]ccc2c1` [Example 2, 4-{4-[(4′-chloro-1,1′-biphenyl-2-yl)methyl]piperazin-1-yl}-N-({4-[(3-morpholin-4-ylpropyl)amino]-3-nitrophenyl}sulfonyl)-2-(1H-pyrrolo[2,3-b]pyridin-5-yloxy)benzamide] yielded a Ki of less than 0.01 nM.
